According to paper PMC10674299, “Discovery of Guanfacine as a Novel TAAR1 Agonist: A Combination Strategy through Molecular Modeling Studies and Biological Assays” (Pharmaceuticals, 2023):
Where two headings read alike, the source gives them in different places.

Key:
α2-ADR [1] = target: α2-ADR; set-up: method as in PMID 22795332; conditions: cited from earlier work
hTAAR1 [2] = target: T1, hTAAR1 (Homo sapiens, UniProt Q96RJ0); test: BRET-based cAMP assay in HEK293 cells transfected with hTAAR1 and cAMP biosensor; type: cell-based; conditions: for EC50: HEK293, dose-response 1 nM to 10 μM, IBMX 200 µM
T1 construct: Plasmid containing the cDNA for hTAAR1 was a generous gift from Hoffman-La Roche; expressed in transfected cells; host or cells: HEK293T (ATCC CRL-11268), transient transfection with Lipofectamine 2000
T1 sequence (Q96RJ0 1-339): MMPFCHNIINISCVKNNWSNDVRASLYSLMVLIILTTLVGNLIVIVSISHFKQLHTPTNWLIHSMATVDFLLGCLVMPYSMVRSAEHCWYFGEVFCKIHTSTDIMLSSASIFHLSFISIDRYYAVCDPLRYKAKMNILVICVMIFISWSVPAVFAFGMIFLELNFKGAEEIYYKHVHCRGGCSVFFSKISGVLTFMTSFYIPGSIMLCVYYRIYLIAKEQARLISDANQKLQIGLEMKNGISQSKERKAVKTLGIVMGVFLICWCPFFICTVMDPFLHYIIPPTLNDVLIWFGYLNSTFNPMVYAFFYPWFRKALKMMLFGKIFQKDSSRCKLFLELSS
Method: hTAAR1 is coupled to stimulatory G proteins and thus its activation induces an increase in the cAMP production. We measured the potential activity of guanfacine and guanabenz by using a BRET-based assay in which HEK293 cells were transfected with hTAAR1, or the empty vector as control, and the cAMP BRET biosensor. […] A dose-response experiment was performed using concentrations ranging from 1 nM to 10 μM to calculate the corresponding EC50 and the Emax values.
Human embryonic kidney 293 cells (HEK293T; ATCC CRL-11268) were maintained in Dulbecco’s Modified Eagle’s medium (DMEM; Gibco-Thermo Fisher Scientific, New York, NY, USA) supplemented with 10% (v/v) of FBS, 2 mM l-glutamine, and 0.05 mg/mL of gentamicin (both from Gibco) at 37 °C in a humidified atmosphere at 95% air and 5% CO2. Transient transfections were performed 24 h after cell seeding using the Lipofectamine reagent 2000 protocol (Invitrogen-Thermo Fisher Scientific, Carlsbad, USA). Then, 5 µg of hTAAR1 and 4 µg of cAMP biosensor protein (EPAC) encoding plasmids (the latter based on pcDNA3 core vector [59]) for each milliliter of transfection mix were used. For the BRET experiments, the cells were plated 6 h after transfection in poly-D-lysine coated 96-well white opaque microplates (Corning, New York, NY, USA) at a density of 7 × 10^4 cells per well in phenol red free Minimum Essential Medium (MEM; Gibco-Thermo Fisher Scientific, New York, NY, USA) containing 2% of FBS, 10 mM HEPES buffering agent, and 2 mM L-glutamine (all from Gibco-Thermo Fisher Scientific, New York, NY, USA). The cells were then cultured for an additional 24 h.
The BRET experiment was conducted as already described. Briefly, for time course experiments, the plate was read immediately after the addition of the agonist and for approximately 20 min. All the experiments were conducted in the presence of the phosphodiesterase inhibitor 3-isobutyl-1-methylxanthine (IBMX; Sigma-Aldrich, St. Louis, MO, USA) at the final concentration of 200 µM. Readings were collected using a Tecan Infinite instrument that allows the sequential integration of the signals detected in the 465 to 505 nm and 515 to 555 nm windows using filters with the appropriate band pass and by using iControl software. The acceptor/donor ratio was then calculated.
All the compounds were dissolved in dimethyl sulfoxide (DMSO; Sigma-Aldrich, St. Louis, MO, USA) and tested at the final concentration of 10 μM. Beta-phenylethylamine (Sigma-Aldrich, St. Louis, MO, USA) at the final concentration of 10 µM was applied as a positive control. To confirm specificity of positive responses, parallel screening on cells not transfected with the TAAR1-encoding vector was carried out. For compounds considered active, separate dose-response experiments were performed in order to calculate the EC50 values. Curves were fitted using a non-linear regression and one site specific binding with GraphPad Prism 6 (GraphPad Software). Data are representative of 4–5 independent experiments and are expressed as means, SD < 10%.

α2-ADR [3] = conditions: cited from earlier work
mTAAR1 [4] = tested on: mTAAR1; set-up: method as in PMID 19725810; conditions: cited from earlier work
mTAAR1 [5] = tested on: mTAAR1; set-up: method as in doi:10.1039/C5MD00400D; conditions: BRET cAMP reporter; cited from earlier work
chimeric receptor cTAAR1 = target: chimeric receptor cTAAR1; set-up: method as in PMID 19725810; conditions: cited from earlier work
DAT-KO rats = test: Locomotor activity of DAT-KO rats (Actometer); type: in vivo, rat; conditions: 0.1 and 0.3 mg/kg i/p, 60 min, vs vehicle p < 0.001 and p = 0.02 (Bonferroni)
Method: To evaluate the in vivo pharmacological effect of guanfacine, we used a rodent model of hyperdopaminergia, the dopamine transporter knockout (DAT-KO) rats, that also mimics some phenotypic aspect of ADHD and has certain predictive validity for the search of novel pharmacological agents to control hyperactivity and cognitive processes in patients with this disease. […] Thus, the effect of guanfacine on hyperactivity of DAT-KO rats was evaluated.
Results are presented on Figure 15. […] We used the mixed ANOVA (the within-subject factors ‘5-min bin’ (1–12) and ‘dose’ (0.0; 0.1; 0.3 mg/kg), the between-subject factor ‘mutation’ (‘WT’; ‘KO’); the random factor ‘rat #’) on rank-transformed data to analyze results. […] Locomotor activity of the rats decreased from the 1st to the 12th bin (the effect of factor ‘5-min bin’: F(11,51) = 2.51, p = 0.01). The lack of DAT was associated with an increased level of locomotor activity (the effect of factor ‘mutation’: F(1,11) = 222.94, p < 0.001). […] We used Bonferroni’s test for post hoc comparisons. […]
The study was performed in the apparatus ‘Actometer’ described in detail before. […] Following the injection, the locomotor activity of the animals was recorded for an additional 60 min divided in 12 intervals of 5-min each. […]

[6] = set-up: method as in PMID 12351753; conditions: animal studies, cited from earlier work
hTAAR1 [7] = target: T1, hTAAR1; conditions: S18616; cited from earlier work

## c1ccc(Cc2ncc[nH]2)cc1 [6a]
α2-ADR [1]
  Ki: 1880 nM

## N=C(N)N/N=C/c1c(Cl)cccc1Cl [guanabenz]
hTAAR1 [2]; HEK293, read-out: hTAAR1 Emax
  Emax: > 85%
hTAAR1 [2]; cAMP BRET, HEK293
  type of agonism at hTAAR1: full agonists
hTAAR1 [2]; cAMP BRET
  EC50: 10 nM
α2-ADR [3]; guanabenz
  EC50: ~16.3 nM
mTAAR1 [4]
  EC50: 7 nM
  type of agonism at mTAAR1: partial agonist
mTAAR1 [5]
  EC50: 90 nM
  type of agonism at mTAAR1: full agonist
Chimeric receptor cTAAR1; chimeric human/mouse receptor
  EC50: 25 nM
Chimeric receptor cTAAR1
  type of agonism at cTAAR1: partial agonist

## N=C(N)NC(=O)Cc1c(Cl)cccc1Cl [guanfacine]
hTAAR1 [2]; cAMP BRET, HEK293
  type of agonism at hTAAR1: full agonists
hTAAR1 [2]; cAMP BRET
  EC50: 20 nM
hTAAR1 [2]; cAMP BRET, HEK293, read-out: hTAAR1 Emax
  Emax: > 85%
DAT-KO rats
  effect on locomotor activity: decreased locomotor activity
α2-ADR [3]; guanfacine
  EC50: ~25.1 nM
[6]; higher doses (10 mg/Kg)
  adverse effects: provoked more relevant adverse effects
[6]; low doses (0.5–1 mg/Kg)
  effect on working memory: improved working memory without reducing blood pressure or causing significant sedation

## CCN(Cc1ncc[nH]1)c1ccccc1 [compound 51]
α2-ADR [1]
  Ki: 254 to 497 nM

## NC1=NC2(CCc3cccc(Cl)c3C2)CO1 (stereo not drawn) [S18616]
hTAAR1 [7]
  EC50: 15 nM
α2-ADR [3]; S18616
  EC50: 0.7 nM

## CC(C)N(Cc1c[nH]cn1)c1ccc(Cl)cc1 [compound 24]
α2-ADR [1]
  Ki: 840 nM

## NCCc1ccccc1 [β-PEA, β-phenylethylamine]
hTAAR1 [2]; cAMP BRET
  EC50: 202 nM

## c1ccc(CC2=NCCN2)cc1 [5a]
α2-ADR [1]
  Ki: 98.4 nM
